Laboratory results published in patent US8507219B2, “Method of treating inflammation with statins” (MUSC Foundation for Research Development, priority 1997, dated 2013).

Tests used:
[1] = test system: TNF-α production in rat primary astrocytes; experiment: LPS-induced TNF-α production (ELISA) in rat primary astrocytes; assay type: cell-based; conditions: Astrocytes, LPS 1.0 μg/ml, 24 h
Experimental: Determination of TNF-α and IL-1β in culture supernatants Cells were stimulated with LPS in serum-free media for 24 h in the presence or absence of forskolin or rolipram, and concentrations of TNF-α and IL-1β were measured in culture supernatants by using high-sensitivity enzyme-linked immunosorbent assay (R&D Systems, USA) according to the manufacturer's instructions.

[2] = test system: iNOS promoter; experiment: iNOS promoter-derived CAT activity in rat macrophages; assay type: cell-based; conditions: LPS 1.0 μg/ml, 14 h
Experimental: (§1) Construction of reporter plasmid, transfection and assay of chloramphenicol acetyl transferase activity The CAT (chloramphenicol acetyl transferase) under the control of nitric oxide synthase promoter (iNOS) was created by subcloning 1.5 kb promoter from pGEM-NOS at Sph I and Sal I restriction sites of pCAT-basic vector (Promega). […]. The cells were transfected by using the lipofectin (Life Technologies Inc., USA) method, as has been described in manufacturer's protocol, with 2 μg of reporter plasmid. They were then stimulated 24 h after transfection and harvested after 14 h of stimulation. CAT activity was measured as has been described.

[3] = test system: iNOS promoter; experiment: iNOS promoter-derived CAT activity in rat primary astrocytes; assay type: cell-based; conditions: LPS 1.0 μg/ml, 14 h
Experimental: as §1

[4] = test system: PP 1/2A; experiment: PP1/2A activity in homogenates of LPS-treated astrocytes; assay type: cell-based, rat; conditions: LPS 1.0 μg/ml, 30 min; okadaic acid 0-20 nM
Experimental: In vitro PP1/2A assay The extraction and assay for PP1/2A were performed as described (Begum and Ragolia, 1996). Control and treated cells were scraped off the dishes with 0.3 ml of phosphatase extraction buffer containing 20 mM imidazole-HCl, 2 mM EDTA, 2 mM EGTA, pH 7.0, with 10 μg/ml each of aprotinin, leupeptin, antipain, soybean trypsis inhibitor, 1 mM benzamide, and 1 mM PMSF. The cells were sonicated for 10 s and centrifuged at 2000×g for 5 min, and the supernatants were used for the assay of phosphatase activities using the protein phosphatase assay kit (Life Technologies, Inc.) according to the manufacturer's protocol.

[5] = test system: TNF-α production in rat resident macrophages; experiment: LPS-/IFN-γ-induced TNF-α production (ELISA) in rat macrophages; assay type: cell-based; conditions: Macrophages, LPS 1.0 μg/ml, 24 h
[6] = test system: murine macrophage cell line RAW 264.7; experiment: LPS-/cytokine-induced NO production and iNOS protein in RAW 264.7; assay type: cell-based; conditions: 24 h
Experimental: Cells in this study were incubated in serum-free DMEM/F-12 received calyculin A along with LPS and cytokines. Samples tested included control, LPS+TNF-α, TNF-α+IFN-γ, TNF-α+IL-1β, LPS+TNF-α+calyculin A, TNF-α+IFN-γ+calyculin A, and TNF-α+IL-1β+calyculin A. After 24 h, concentration of nitrite (nmol/mg/24 h) was measured in the supernatants as described in Example 6. Data are mean±S.D. of three different studies. Cell homogenates were electrophoresed, transferred on […] against mouse macrophage iNOS as described.

[7] = test system: iNOS; experiment: Expression of iNOS protein (immunoblot) and mRNA (Northern) in rat primary astrocytes; assay type: cell-based; conditions: LPS 1.0 μg/ml
Experimental: (§2) Immunoblot analysis for iNOS Following 24 h incubation in the presence or absence of stimuli by different cytokines or LPS, macrophages were scraped off, washed with Hank's buffer, and homogenized in 50 mM Tris-HCl (pH 7.4) containing protease inhibitors (1 nM PMSF, 5 μg/ml aprotinin, 5 μg/ml pepstatin A, and 5 μg/ml leupeptin). After electrophoresis the proteins were transferred onto a nitrocellulose membrane, and the iNOS band was visualized by immunoblotting with antibodies against mouse macrophage iNOS and [^125I]-labeled protein A (Singh et al., 1988).
RNA isolation, Northern blot analysis, and reverse-transcriptase coupled polymerase chain reaction (RT-PCR) Stimulated peritoneal macrophages were taken out from culture dishes directly by adding Ultraspec-II RNA reagent (Biotecx Laboratories Inc.) and total RNA was isolated according to the manufacturer's protocol. For northern blot analyses, 20 μg of total RNA was electrophoresed on 1.2% denaturing formaldehyde-agarose gels, electrotransferred to Hybond-Nylon Membrane (Amersham) and hybridized at 68° C. with ^32P-labeled cDNA probe using Express Hyb hybridization solution (Clontech) as described by the manufacturer. […]; After hybridization filters were washed two to three times in solution I (2×SSC, 0.05% SDS) for 1 h at room temperature followed by solution II (0.1×SSC, 0.1% SDS) at 50° C. for another hour. The membranes were then dried and exposed to X-ray film (Kodak). The same filters were stripped and rehybridized with probes for GAPDH. The relative mRNA content for iNOS was measured after scanning the bands with a Biorad (Model GS-670) imaging densitometer.
as §2, with “of” for “of stimuli by”, “stimuli, cells” for “cytokines or LPS, macrophages”, “inhibitors.” for “inhibitors (1 nM PMSF, 5 μg/ml aprotinin, 5 μg/ml pepstatin A, and 5 μg/ml leupeptin).”, “A.” for “A (Singh et al., 1988).”
RNA isolation and Northern blot analysis Cells were taken out from culture dishes directly by adding Ultraspec-II RNA reagent (Biotecx Laboratories Inc.) and total RNA was isolated according to the manufacturer's protocol. For Northern blot analyses, 20 μg of total RNA was electrophoresed on 1.2% denaturing formaldehyde-agarose gels, electrotransferred to Hybond-Nylon Membrane (Amersham) and hybridized at 68° C. with ^32P-labeled cDNA probe using Express Hyb hybridization solution (Clontech) as described by the manufacturer. […]; After hybridization filters were washed two or three times in solution I (2×SSC, 0.05% SDS) for one hour at room temperature followed by solution II (0.1×SSC, 0.1% SDS) at 50° C. for another hour. The membranes were then dried and exposed with X-ray films (Kodak). The same filters were stripped and rehybridized with probes for GAPDH. The relative mRNA content for iNOS was measured after scanning the bands with a Biorad (Model GS-670) imaging densitometer.
as §2, with “After a” for “Following”, “of” for “of stimuli by”, “stimuli, cells” for “cytokines or LPS, macrophages”, “mM” for “nM”, “A.” for “A (Singh et al., 1988).”
RNA isolation and Northern blot analysis Cells were taken out from culture dishes directly by adding Ultraspec-II RNA reagent (Biotecx Laboratories Inc., Houston, Tex.), and total RNA was isolated according to the manufacturer's protocol. […]

[8] = test system: NO production in rat C6 glial cells; experiment: LPS-/cytokine-induced NO production (nitrite) in C6 glial cells; assay type: cell-based; conditions: 2 nM calyculin A along with LPS and cytokines, 24 h
[9] = test system: NO production in rat resident macrophages; experiment: LPS-/cytokine-induced NO production (nitrite) in rat resident peritoneal macrophages; assay type: cell-based; conditions: LPS 1.0 μg/ml, 24 h
Experimental: Isolation of Rat Macrophages and Induction of NO Production Resident macrophages were obtained from rats by peritoneal lavage with sterile RPMI 1640 medium containing 1% fetal bovine serum and 100 μg/ml gentamicin (Wang et al., 1995). Cells were washed three times with RPMI 1640 at 4° C. All cell cultures were maintained at 37° C. in a humidified incubator containing 5% CO2 in air. Macrophages, at a concentration of 2×10^6/ml in RPMI 1640 medium containing L-glutamine and gentamicin, were added in volumes of 800 μl to a 35 mm plate. After 1 h, nonadherent cells were removed by washing and 800 μl of serum-free RPMI 1640 medium with various stimuli were added to the adherent cells. After 24 h incubation in 5% CO2 in air at 37° C., the culture supernatants were transferred to measure NO production (Geng et al., 1995; Wang et al., 1995).
Isolation of rat macrophages and induction of NO production Resident macrophages were obtained from rat by peritoneal lavage with sterile RPMI 1640 medium containing 1% fetal bovine serum and 100 μg/ml gentamicin as described herein. Cells were washed three times with RPMI 1640 at 4° C. All cell cultures were maintained at 37° C. in a humidified incubator containing 5% CO2 in air. Macrophages at a concentration of 2×10^6/ml in RPMI 1640 medium containing L-glutamine and gentamicin were added in volumes of 800 μl to a 35 mm plate. After 1 h, nonadherent cells were removed by washing and 800 μl of serum-free RPMI 1640 medium with various stimuli were added to the adherent cells. After incubation in 5% CO2 in air at 37° C., culture supernatants were transferred to measure NO production.
Isolation of rat macrophages and induction of NO production Resident macrophages were obtained from rat by peritoneal lavage with sterile RPMI 1640 medium containing 1% FBS and 100 μg/ml gentamicin. Cells were washed three times with RPMI 1640 at 4° C., and were maintained at 37° C. in a humidified incubator containing 5% CO2 in air. Macrophages at a concentration of […] in RPMI 1640 medium containing L-glutamine and gentamicin were added in volumes of 800 μl to a 35-mm plate. After 1 h, nonadherent cells were removed by washing, and 800 μl of serum-free RPMI 1640 medium with various stimuli was added to the adherent cells. After 24 h the culture supernatants were transferred to measure NO production.
Protein was measured (Bradford, 1976).

SMILES	TNF-α ([1]; inhibitor 5 nM)	TNF-α ([1]; inhibitor 10 nM)	LPS-induced iNOS promoter-derived CAT activity [2]	LPS-induced iNOS promoter-derived CAT activity [3]	activities of PP 1/2A [4]	TNF-α ([5]; inhibitor 5 nM)	TNF-α ([5]; inhibitor 10 nM)	TNF-α ([1]; inhibitor 1 nM)	TNF-α ([1]; inhibitor 2 nM)	LPS- and cytokine-induced production of NO and iNOS protein [6]	LPS-mediated induction of iNOS protein and mRNA [7]	TNF-α ([5]; inhibitor 1 nM)	TNF-α ([5]; inhibitor 2 nM)	stimulation of the production of NO [8]	LPS-induced NO production [9]
C=C1[C@@H](O)[C@@H]2O[C@]3(CC[C@H](/C=C/[C@@H](C)[C@@H]4CC(C)=C[C@@]5(O[C@H](C[C@@](C)(O)C(=O)O)CC[C@H]5O)O4)O3)CC[C@H]2O[C@@H]1[C@@H](O)C[C@H](C)[C@H]1O[C@@]2(CCCCO2)CC[C@H]1C [Okadaic acid]	10.8 ± 1.2 ng/24 h/mg protein	14.6 ± 1.8 ng/24 h/mg protein	inhibited the LPS-induced CAT activity in macrophages	stimulated the LPS-induced CAT activity in astrocytes	dose-dependently inhibited the activities of PP 1/2A	24.3 ± 1.9 ng/24 h/mg protein	28.9 ± 3.4 ng/24 h/mg protein								
COC[C@@H]([C@H](O)[C@H](O)C(=O)NCC[C@H](C)c1nc(/C=C/C[C@@H]2O[C@]3(C[C@@H](O)[C@@H]2C)O[C@H]([C@H](C[C@H](O)[C@H](C)[C@H](O)[C@H](C)/C=C(C)/C(C)=C/C=C/C(C)=C\C#N)OC)[C@H](OP(=O)(O)O)C3(C)C)co1)N(C)C [Calyculin A]					also inhibited the activities of PP 1/2A			12.5 ± 1.6 ng/24 h/mg protein	16.9 ± 2.1 ng/24 h/mg protein	inhibit the LPS- and cytokine-induced production of NO and the expression of iNOS protein	enhanced the LPS-mediated induction of iNOS protein and mRNA	27.5 ± 3.1 ng/24 h/mg protein	31.2 ± 3.6 ng/24 h/mg protein	more than three fold	inhibited the LPS-induced NO production in rat peritoneal macrophages
